Reference: article PMC10866072, “Design, synthesis, molecular modelling and biological evaluation of novel 6-amino-5-cyano-2-thiopyrimidine derivatives as potent anticancer agents against leukemia and apoptotic inducers” (Journal of Enzyme Inhibition and Medicinal Chemistry, 2024)

Columns and labels:
SK-MEL-2 = format: cell-based
HCT-116 = format: cell-based
SW-620 = format: cell-based
786-0 = format: cell-based
PC-3 = format: cell-based
NCI/ADR-RES = format: cell-based
OVCAR-8 = format: cell-based
[1] = test system: Prostate cancer cell lines; test: NCI-60 five-dose, subpanel
Description: A measure of a compound’s selectivity for a given cell line is the ratio created by dividing the full panel mean graph midpoints (MG-MID) concentration by the individual subpanel MG-MID concentrations (obtained as the average sensitivity of all the cell lines in a given subpanel to the test compound).
(§2) Assessment of selectivity of a compound depends on the ratio obtained by dividing the full panel MID ^a by their individual subpanel MID ^b (µM) where MID^a is the average sensitivity of all cell lines towards the test agent (µM).

[2] = test system: Non-small cell lung cancer cell lines; test: NCI-60 five-dose, subpanel
Description: Furthermore, the average sensitivity of all cell lines to the compound is termed as the full panel mean graph midpoints (MG-MID). The complete panel mean graph midpoints refers to the average sensitivity of all cell lines to the chemical (MG-MID). A measure of a compound’s selectivity for a given cell line is the ratio created by dividing the full panel mean graph midpoints (MG-MID) concentration by the individual subpanel MG-MID concentrations (obtained as the average sensitivity of all the cell lines in a given subpanel to the test compound).
as §2

MOLT-4 = format: cell-based
SF-295 = format: cell-based
IGROV1 = format: cell-based
UO-31 = format: cell-based
[3] = test system: caspase 3 level in leukaemia SR cells; test: Caspase 3 ELISA; format: cell-based, human
Description: (§1) One of the most significant downstream caspases, Caspase-3, is referred to as an effector caspase[94]^,[95]. For further analysis, the effect of compound 1c on caspase 3 enzyme level was measured using ELISA kit (Invitrogen, Catalog # KHO1091) according to the manufacturer’s instructions. Briefly, 100 µl of the standard diluent buffer to the zero standard wells. Additionally, 100 µl of standards and controls or diluted samples were added to the appropriate microtiter wells, then wells were covered with plate cover and incubated for 2 h at R.T. Afterwards, wells were aspirated gently, washed with washing buffer 4 times. Furthermore, 100 µl of caspase 3 detection antibody was added into each well except the blank wells, and the plate was covered and incubated for 1 h at R.T. Then, the aspiration and washing steps were repeated again. Finally, 100 µl of the stabilised chromogen solution were added, plate was incubated for 30 min at R.T., stop solution was used to stop the reaction and the developed colour was measured at wave length 450 nm using plat ELISA reader.

[4] = test system: caspase 3 level in HL60 cells; test: Caspase 3 ELISA; format: cell-based, human; settings: HL 60 cells
Description: as §1

OVCAR-3 = format: cell-based
DU-145 = format: cell-based
SF-539 = format: cell-based
A549/ATCC = format: cell-based
SK-MEL-5 = format: cell-based
EKVX = format: cell-based
NCI-H23 = format: cell-based
RXF 393 = format: cell-based; settings: five-dose
CAKI-1 = format: cell-based
ACHN = format: cell-based
OVCAR-5 = format: cell-based
[5] = Homo sapiens, one dose 10^-5 M, 48 h
[6] = Homo sapiens, five-dose, read-out: LC50 (the source's name)
[7] = Homo sapiens, one dose 10^-5 M, 48 h, read-out: % growth
[8] = Homo sapiens, read-out: GI50 Subpanel MID^b

N#Cc1c(N)nc(S)nc1-c1ccc(Cl)cc1Cl [Compound 1c, 4-Amino-6–(2,4-dichlorophenyl)-2-mercaptopyrimidine-5-carbonitrile]
GI50 (SK-MEL-2; Homo sapiens, five-dose): 17.5 µM | LC50 (SK-MEL-2; Homo sapiens, five-dose): 66.8 µM | % growth at 10 µM (SK-MEL-2; [5]): 98.6% | TGI (SK-MEL-2; five-dose): 34.20 µM | GI50 (HCT-116; Homo sapiens, five-dose): 0.06 µM | CC50 (HCT-116; [6]): 63.6 µM | activity at 10 µM (HCT-116; [7]): -18.8% | TGI (HCT-116; five-dose): 17.90 µM | % growth (HCT-116; one dose 10^-5 M, 48 h): -18.77% | GI50 (SW-620; Homo sapiens, five-dose): 12 µM | LC50 (SW-620; Homo sapiens, five-dose): 78.6 µM | % growth at 10 µM (SW-620; [5]): 45.7% | TGI (SW-620; five-dose): 30.70 µM | GI50 (786-0; Homo sapiens, five-dose): 17.5 µM | CC50 (786-0; [6]): 99.1 µM | % growth at 10 µM (786-0; [5]): 67% | TGI (786-0; five-dose): 41.60 µM | GI50 (PC-3; Homo sapiens, five-dose): 11.1 µM | CC50 (PC-3; [6]): > 100 µM | percent cell growth at 10 µM (PC-3; [5]): 49.8% | TGI (PC-3; five-dose): 48.20 µM | GI50 (NCI/ADR-RES; Homo sapiens, five-dose): 0.7 µM | CC50 (NCI/ADR-RES; [6]): > 100 µM | cell growth percent at 10 µM (NCI/ADR-RES; [5]): 37.9% | TGI (NCI/ADR-RES; five-dose): 26.20 µM | GI50 (OVCAR-8; Homo sapiens, five-dose): 21.8 µM | CC50 (OVCAR-8; [6]): > 100 µM | % growth of cells at 10 µM (OVCAR-8; [5]): 5.74% | TGI (OVCAR-8; five-dose): 74.70 µM | GI50 [1, 8]: 13 µM | Selectivity ratio (full panel MID^a / subpanel MID^b, GI50 level) ([1]; prostate cancer): 0.99 | GI50 [2, 8]: 18.1 µM | Selectivity ratio (full panel MID^a / subpanel MID^b, GI50 level) ([2]; non-small cell lung cancer): 0.7 | GI50 (MOLT-4; Homo sapiens, five-dose): 0.7 µM | CC50 (MOLT-4; [6]): > 100 µM | activity at 10 µM (MOLT-4; [7]): 6.11% | TGI (MOLT-4; five-dose): 43.90 µM | GI50 (SF-295; Homo sapiens, five-dose): 10.4 µM | CC50 (SF-295; [6]): 49 µM | % cell growth at 10 µM (SF-295; [5]): 78.1% | TGI (SF-295; five-dose): 22.60 µM | GI50 (IGROV1; Homo sapiens, IGROV-1, five-dose): 19.2 µM | CC50 (IGROV1; Homo sapiens, IGROV-1, five-dose, read-out: LC50 (the source's name)): 87.6 µM | activity at 10 µM (IGROV1; Homo sapiens, IGROV-1, one dose 10^-5 M, 48 h, read-out: % growth): 65.7% | TGI (IGROV1; five-dose): 41.00 µM | % cell growth at 10 µM (UO-31; Homo sapiens, UO-31, 48 h, one dose 10^-5 M, 48 h): 63.5% | GI50 (UO-31; Homo sapiens, five-dose): 14.7 µM | CC50 (UO-31; [6]): 53.6 µM | TGI (UO-31; five-dose): 28.10 µM | caspase 3 level increase vs untreated control [3]: 3.4 folds | caspase 3 level increase vs untreated control [4]: 5.6 folds | GI50 (OVCAR-3; Homo sapiens, five-dose): 18.1 µM | CC50 (OVCAR-3; [6]): > 100 µM | % growth at 10 µM (OVCAR-3; [5]): 17.1% | TGI (OVCAR-3; five-dose): 47.60 µM | GI50 (DU-145; Homo sapiens, five-dose): 14.9 µM | LC50 (DU-145; Homo sapiens, five-dose): 57.4 µM | % growth at 10 µM (DU-145; [5]): 51.3% | TGI (DU-145; five-dose): 29.20 µM | GI50 (SF-539; Homo sapiens, five-dose): 10.8 µM | CC50 (SF-539; [6]): 52.4 µM | % growth at 10 µM (SF-539; [5]): 39.9% | TGI (SF-539; five-dose): 23.80 µM | GI50 (A549/ATCC; Homo sapiens, five-dose): 25.8 µM | LC50 (A549/ATCC; Homo sapiens, five-dose): > 100 µM | % growth at 10 µM (A549/ATCC; [5]): 90.1% | TGI (A549/ATCC; five-dose): 77.40 µM | GI50 (SK-MEL-5; Homo sapiens, five-dose): 5.56 µM | CC50 (SK-MEL-5; [6]): 45 µM | activity at 10 µM (SK-MEL-5; [7]): 58.1% | TGI (SK-MEL-5; five-dose): 19.50 µM | GI50 (EKVX; Homo sapiens, five-dose): 14.3 µM | LC50 (EKVX; Homo sapiens, five-dose): 62.6 µM | % cell growth at 10 µM (EKVX; [5]): 98.6% | TGI (EKVX; five-dose): 29.90 µM | GI50 (NCI-H23; Homo sapiens, five-dose): 13.1 µM | CC50 (NCI-H23; [6]): 60.9 µM | activity at 10 µM (NCI-H23; [7]): 76.1% | TGI (NCI-H23; five-dose): 28.30 µM | GI50 (RXF 393; Homo sapiens): 12.7 µM | CC50 (RXF 393; Homo sapiens, read-out: LC50 (the source's name)): 52.2 µM | TGI (RXF 393): 25.70 µM | % growth at 10 µM (CAKI-1; Homo sapiens, CAKI-1, 48 h, one dose 10^-5 M, 48 h): 72.3% | GI50 (CAKI-1; Homo sapiens, five-dose): 18.4 µM | CC50 (CAKI-1; [6]): > 100 µM | TGI (CAKI-1; five-dose): 45.70 µM | GI50 (ACHN; Homo sapiens, five-dose): 16.5 µM | CC50 (ACHN; [6]): 62.1 µM | % growth at 10 µM (ACHN; [5]): 19.6% | TGI (ACHN; five-dose): 32.00 µM | GI50 (OVCAR-5; Homo sapiens, five-dose): 16.4 µM | CC50 (OVCAR-5; [6]): 63.2 µM | percent cell growth at 10 µM (OVCAR-5; [5]): 93.5% | TGI (OVCAR-5; five-dose): 32.20 µM
